Measured values: patent US20050256003A1, “Novel herbicides” (priority 2002, published 2005)

Key:
Assay type in all cases: in vivo
selected test plants = experiment: Post-emergence action in a different test arrangement (Table B3); design: key to Post-emergence action (different test arrangement), Nasturtium / Post-emergence action (different test arrangement), Stellaria / Post-emergence action (different test arrangement), Solanum: 10=total damage; 0=no action; Ratings of from 10 to 7 (especially from 10 to 8) indicate good to very good herbicidal action; details: 250 g a.i./ha
[1] = test system: monocotyledonous and dicotyledonous test plants; experiment: Post-emergence herbicidal action; design: key: 10=total damage; 0=no action; Ratings of from 10 to 7 (especially from 10 to 8) indicate good to very good herbicidal action; details: 250 g a.i./ha, about 18 days, rating 0-10
Method in brief: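 Plants at the 4- to 6-leaf stage in greenhouse soil sprayed with a suspension from a 25% wettable powder or an emulsion from a 25% emulsifiable concentrate at 125 g or 250 g a.i./ha (500 litres water/ha). Damage rated after about 18 days on a […] scale (10=total damage, 0=no action).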

[2] = test system: monocotyledonous and dicotyledonous test plants; experiment: Herbicidal action prior to emergence of the plants (pre-emergence action); design: key: 10=total damage; 0=no action; Ratings of from 10 to 7 (especially from 10 to 8) indicate good to very good herbicidal action; details: 250 g a.i./ha, pre-emergence spray, evaluated after 3 weeks, scale 10=total damage, 0=no action
Excerpt: Herbicidal Action Prior to Emergence of the Plants (Pre-Emergence Action)
Monocotyledonous and dicotyledonous test plants are sown in standard soil in plastic pots Immediately after sowing, the test compounds, in the form of an aqueous suspension (prepared from a 25% wettable powder (Example F3, b) according to WO 97/34485) or in the form of an emulsion (prepared from a 25% emulsifiable concentrate (Example F1, c)), are applied by spraying in a concentration corresponding to 125 g or 250 g of active ingredient/ha (500 litres of water/ha). The test plants are then grown in a greenhouse under optimum conditions. After a test duration of 3 weeks, the test is evaluated in accordance with a scale of nine ratings (10=total damage, 0=no action). Ratings of from 10 to 7 (especially from 10 to 8) indicate good to very good herbicidal action.

SMILES	Post-emergence action (different test arrangement), Amaranthus (selected test plants)	Post-emergence action (different test arrangement), Nasturtium (selected test plants)	Post-emergence action (different test arrangement), Solanum (selected test plants)	Post-emergence action (different test arrangement), Stellaria (selected test plants)	Post-emergence action, Amaranthus [1]	Post-emergence action, Chenopodium [1]	Post-emergence action, Echinochloa [1]	Post-emergence action, Euphorbia [1]	Post-emergence action, Ipomea [1]	Post-emergence action, Sinapis [1]	Post-emergence action, Stellaria [1]	Post-emergence action, Xanthium [1]	Pre-emergence action: Abutilon (rating) [2]	Pre-emergence action: Amaranthus (rating) [2]	Pre-emergence action: Chenopodium (rating) [2]	Pre-emergence action: Cyperus (rating) [2]	Pre-emergence action: Echinochloa (rating) [2]	Pre-emergence action: Panicum (rating) [2]	Pre-emergence action: Scirpus (rating) [2]	Pre-emergence action: Sida (rating) [2]
CN1CCN(Cc2nc(C(F)(F)F)ccc2C(=O)c2cnn(C)c2O)C1=O [Compound B1.211]	9	10	9	8	–	–	–	–	–	–	–	–	–	–	–	–	–	–	–	–
CC1CCN(Cc2nc(C(F)(F)F)ccc2C(=O)C2=C(O)CCCC2=O)C1=O (stereo not shown) [Compound A1.222]	9	10	9	9	–	–	–	–	–	–	–	–	–	–	–	–	–	–	–	–
Cn1ncc(C(=O)c2ccc(C(F)(F)F)nc2CN2CN(c3ccc(Cl)cc3)CC2=O)c1O [Compound B1.238]	9	8	9	7	–	–	–	–	–	–	–	–	–	–	–	–	–	–	–	–
Cn1c(=O)n(Cc2nc(C(F)(F)F)ccc2C(=O)C2=C(O)CCCC2=O)c(=O)n1C [Compound A1.211]	9	10	9	7	–	–	–	–	–	–	–	–	–	–	–	–	–	–	–	–
Cc1nn(Cc2nc(C(F)(F)F)ccc2C(=O)C2=C(O)CCCC2=O)c(=O)o1 [Compound A1.097, 3-[3-(2-Hydroxy-6-oxo-cyclohex-1-enecarbonyl)-6-trifluoromethyl-pyridin-2-ylmethyl]-5-methyl-3H-[1.3.4]oxadiazol-2-one]	9	10	9	9	–	–	–	–	–	–	–	–	–	–	–	–	–	–	–	–
Cn1ncn(Cc2nc(C(F)(F)F)ccc2C(=O)C2=C(O)CCCC2=O)c1=O [Compound A1.073]	–	–	–	–	10	10	9	9	10	10	10	9	10	10	10	10	3	10	10	9
O=C1CCCC(O)=C1C(=O)c1ccc(C(F)(F)F)nc1CN1CCCC1=O [Compound A1.219]	9	10	9	10	–	–	–	–	–	–	–	–	–	–	–	–	–	–	–	–
Cc1nn(Cc2nc(C(F)(F)F)ccc2C(=O)C2=C(O)CCCC2=O)c(=O)s1 [Compound A1.079]	–	–	–	–	9	9	7	8	8	9	9	7	10	4	8	8	5	9	10	10
COc1nn(Cc2nc(C(F)(F)F)ccc2C(=O)c2cnn(C)c2O)c(=O)s1 [Compound B1.096]	–	–	–	–	7	10	6	7	7	9	8	8	10	10	10	7	–	7	7	7
Cn1ncc(C(=O)c2ccc(C(F)(F)F)nc2Cn2cnn(C)c2=O)c1O [Compound B1.080]	–	–	–	–	10	10	9	10	10	10	10	8	8	0	10	9	10	10	9	0
Cc1nn(Cc2nc(C(F)(F)F)ccc2C(=O)c2cnn(C)c2O)c(=O)o1 [Compound B1.008]	–	–	–	–	9	10	9	8	9	7	8	–	10	10	10	9	9	10	10	9
Cn1ncn(Cc2nc(C(F)(F)F)ccc2C(=O)C2=C(O)C3CCC(C3)C2=O)c1=O (stereo not shown) [Compound A6.073]	–	–	–	–	10	10	9	9	10	10	9	9	10	9	10	7	0	10	10	9
